Laboratory results published in patent US9517989B2, “2-cycloalkyl resorcinol cannabinergic ligands” (priority 2012, dated 2016).
Read-outs that look alike come from different tables or passages of the source.

Assays:
CB1 [1] = biological target: T1, CB1 (Rattus norvegicus, UniProt P20272); assay: CB1 receptor binding affinity (Ki)
Description: Some disclosed compounds were tested for CB1 and CB2 receptor binding affinity (Tables 1, 2, 3, 4, 5, 6). As used herein “binding affinity” is represented by the Ki value. The Ki value is the affinity constant and describes the affinity of the compound for the receptor. […] A detailed description of the methods used to test “binding affinity” of compounds is given in Makriyannis, et al., US 2007, 0135388 and in Papahatjis, et al. J. Med. Chem. (2007) 4048, the content of each of which is hereby incorporated by reference.

CB2 receptor = CB2 receptor (UniProt P47936); assay: CB2 receptor binding affinity (Ki); conditions: read-out: CB2 receptor Ki
Description: Some disclosed compounds were tested for CB1 and CB2 receptor binding affinity (Tables 1, 2, 3, 4, 5, 6). As used herein “binding affinity” is represented by the Ki value. The Ki value is the affinity constant and describes the affinity of the compound for the receptor. The lower the Ki value, the higher the affinity of the compound for the receptor. A detailed description of the methods used to test “binding affinity” of compounds is given in Makriyannis, et al., US 2007, 0135388 and in Papahatjis, et al. J. Med. Chem. (2007) 4048, the content of each of which is hereby incorporated by reference.

CB1 [2] = biological target: T1, CB1; assay: cyclic adenosine monophosphate (cAMP) assay at CB1; type: cell-based; conditions: for EC50: read-out: Functional Potency (EC50); for Emax: read-out: % Efficacy
Description: (§1) Functional characterization of some of the disclosed compounds was performed by using the cyclic adenosine monophosphate (cAMP) assay. The functional potency of the compound is represented by the EC50 value. The lower the EC50 value, the higher the functional potency. A detailed description of the cyclic adenosine monophosphate (cAMP) assay is given in Nikas et al. J. Med. Chem. (2010) 6996.

CB2 = CB2 (Homo sapiens, UniProt P34972); assay: cyclic adenosine monophosphate (cAMP) assay at CB2; type: cell-based; conditions: for EC50: read-out: Functional Potency (EC50); for Emax: read-out: % Efficacy
Sequence of CB2 (P34972 whole entry, species assumed): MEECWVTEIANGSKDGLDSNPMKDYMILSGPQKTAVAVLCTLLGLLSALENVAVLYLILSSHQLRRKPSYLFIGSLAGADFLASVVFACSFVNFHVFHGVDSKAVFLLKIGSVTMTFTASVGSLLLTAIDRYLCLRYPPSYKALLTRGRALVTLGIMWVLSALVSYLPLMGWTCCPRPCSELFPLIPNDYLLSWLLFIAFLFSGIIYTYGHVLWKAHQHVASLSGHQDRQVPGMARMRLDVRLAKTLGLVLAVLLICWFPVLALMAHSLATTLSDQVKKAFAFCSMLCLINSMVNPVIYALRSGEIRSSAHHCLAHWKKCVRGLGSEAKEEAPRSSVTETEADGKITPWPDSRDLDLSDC
Description: as §1

T1 sequence (P20272 whole entry): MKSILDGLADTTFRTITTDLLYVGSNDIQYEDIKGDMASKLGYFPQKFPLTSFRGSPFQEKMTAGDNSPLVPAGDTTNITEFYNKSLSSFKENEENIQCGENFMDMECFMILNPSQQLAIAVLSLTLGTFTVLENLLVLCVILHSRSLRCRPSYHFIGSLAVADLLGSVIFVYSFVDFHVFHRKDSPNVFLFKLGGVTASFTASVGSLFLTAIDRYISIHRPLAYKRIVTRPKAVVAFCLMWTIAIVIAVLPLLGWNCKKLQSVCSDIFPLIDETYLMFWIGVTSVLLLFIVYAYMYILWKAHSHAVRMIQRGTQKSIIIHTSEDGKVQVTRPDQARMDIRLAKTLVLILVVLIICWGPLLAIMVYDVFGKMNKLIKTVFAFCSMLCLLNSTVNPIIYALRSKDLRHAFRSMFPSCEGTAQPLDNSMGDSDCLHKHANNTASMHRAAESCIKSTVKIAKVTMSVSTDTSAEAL

Compound	Ki (CB2 receptor) [nM]	Ki (CB1 [1]) [nM]	other results
2-[(1S,6S)-3-(Hydroxymethyl)-6-(1-methylethenyl)-2-cyclohexen-1-yl]-5-(6-morpholino-2-methylhexane-2-yl)-1,3-dimethoxy-benzene [Compound 74]	16	–	Ki (CB1 [1]; read-out: CB1 receptor Ki): 70 nM; % Efficacy (CB1 [2]): 51%; Functional Activity (CB1 [2]): Agonist at CB1; EC50 (CB1 [2]): 50.4 nM; % Efficacy (CB2): 28%; Functional Activity (CB2): Partial agonist at CB2; EC50 (CB2): 6.7 nM
C=C(C)[C@H]1CCC(CO)=C[C@@H]1c1c(O)cc(C2(CCCCCC)CC2)cc1O [Compound 4.3, 2-[(1S,6S)-3-(Hydroxymethyl)-6-(1-methylethenyl)-2-cyclohexen-1-yl]-5-(1-hexyl-cyclopropyl)resorcinol]	14	16	Functional Activity (CB1 [2]): Agonist at CB1; Emax (CB1 [2]): 58%; EC50 (CB1 [2]): 1.6 nM; Functional Activity (CB2): Partial agonist at CB2; Emax (CB2): 35%; EC50 (CB2): 12 nM
C=C(C)[C@H]1CCC(CO)=C[C@@H]1c1c(O)cc(C2(CCCCCC)CCCC2)cc1O [Compound 4.4, 2-[(1S,6S)-3-(Hydroxymethyl)-6-(1-methylethenyl)-2-cyclohexen-1-yl]-5-(1-hexyl-cyclopentyl)resorcinol]	16	78	Functional Activity (CB1 [2]): Agonist at CB1; Emax (CB1 [2]): 81%; EC50 (CB1 [2]): 17 nM
C=C(C)[C@H]1CCC(CO)=C[C@@H]1c1c(O)cc(C2(CCCCCC)SCCS2)cc1O [Compound 4.6, 2-[(1S,6S)-3-(Hydroxymethyl)-6-(1-methylethenyl)-2-cyclohexen-1-yl]-5-(2-hexyl-1,3-dithiolane-2-yl)resorcinol]	28	71	Functional Activity (CB1 [2]): Agonist at CB1; Emax (CB1 [2]): 84%; EC50 (CB1 [2]): 267 nM
C=C(C)[C@H]1CCC(CO)=C[C@@H]1c1c(O)cc(C2(CCCCCC#N)CCC2)cc1O [Compound 34, 2-[(1S,6S)-3-(Hydroxymethyl)-6-(1-methylethenyl)-2-cyclohexen-1-yl]-5-[(5-cyanopentyl)cyclobutyl]resorcinol]	5.5	20	Functional Activity (CB1 [2]): Agonist at CB1; Emax (CB1 [2]): 83%; EC50 (CB1 [2]): 3.2 nM
CCCC/C=C\C1(c2cc(O)c([C@H]3C=C(C)[C@H]4C[C@@H]3C4(C)C)c(O)c2)CCCC1 [Compound 40.5, (+)-2-[(1R,4S,5S)-2,6,6-trimethylbicylco[3.1.1]hept-2-en-4-yl]-5-[1-(1,2-cis-hexen-1-yl)-cyclopent-1-yl]resorcinol]	6.6	13.4	–
CCCCCCC1(c2cc(O)c([C@H]3C=C(C)[C@H]4C[C@@H]3C4(C)C)c(O)c2)SCCS1 [Compound 40.6, (+)-2-[(1R,4S,5S)-2,6,6-trimethylbicylco[3.1.1]hept-2-en-4-yl]-5-(2-hexyl-1,3-dithiolane-2-yl)resorcinol]	7.9	19.2	Functional Activity (CB1 [2]): Partial agonist at CB1; Emax (CB1 [2]): 38%; EC50 (CB1 [2]): 21 nM; Functional Activity (CB2): Partial agonist at CB2; Emax (CB2): 38%; EC50 (CB2): 8.7 nM
CC1=C[C@H](c2c(O)cc(C3(CCCCCBr)CCCC3)cc2O)[C@@H]2C[C@H]1C2(C)C [Compound 40.7, (+)-2-[(1R,4S,5S)-2,6,6-trimethylbicylco[3.1.1]hept-2-en-4-yl]-5-[(5-bromopentyl)cyclopentyl]resorcinol]	4.7	6.4	–
CC1=C[C@H](c2c(O)cc(C3(CCCCCBr)CCC3)cc2O)[C@@H]2C[C@H]1C2(C)C [Compound 40.8, (+)-2-[(1R,4S,5S)-2,6,6-trimethylbicylco[3.1.1]hept-2-en-4-yl]-5-[(5-bromopentyl)cyclobutyl]resorcinol]	2.1	1	–
CC1=C[C@H](c2c(O)cc(C3(CCCCBr)CCC3)cc2O)[C@@H]2C[C@H]1C2(C)C [Compound 40.15, (+)-2-[(1R,4S,5S)-2,6,6-trimethylbicylco[3.1.1]hept-2-en-4-yl]-5-[(5-bromobutyl)cyclobutyl]resorcinol]	1.9	11	–
CCCCCc1cc(O)c([C@@H]2C=C(C)[C@@H]3C[C@H]2C3(C)C)c(O)c1 [Compound 43.1, (−)-2-[(1S,4R,5R)-2,6,6-trimethylbicyclo[3.1.1]hept-2-en-4-yl]-5-pentyl-resorcinol, reference compound]	565	837	–
CCCC/C=C\C1(c2cc(O)c([C@@H]3C=C(C)[C@@H]4C[C@H]3C4(C)C)c(O)c2)CCCC1 [Compound 43.5, (−)-2-[(1S,4R,5R)-2,6,6-trimethylbicyclo[3.1.1]hept-2-en-4-yl]-5-[1-(1,2-cis-hexen-1-yl)-cycolpentyl-1-yl]resorcinol]	29	45	–
C=C(C)[C@@H]1CCC(=O)C[C@H]1c1c(O)cc(C23CC4CC(CC(C4)C2)C3)cc1O [Compound 48.2, (3R,4R)-3-[4-(1-Adamantyl)-2,6-dihydroxyphenyl]-4-isopropenylcyclohexan-1-one]	> 1000	694	–
C=C(C)[C@@H]1CCC(=COC)C[C@H]1c1c(O)cc(C23CC4CC(CC(C4)C2)C3)cc1O [Compound 49.2, (3R,4R)-3-[4-(1-Adamantyl)-2,6-dihydroxyphenyl]-4-isopropenyl-1-(methoxymethylene)cyclohexane]	375	1760	–
C=C(C)[C@@H]1CC[C@@H](CO)C[C@H]1c1c(O)cc(C23CC4CC(CC(C4)C2)C3)cc1O [Compound 51.2, (1R,3R,4R)-3-[4-(1-Adamantyl)-2,6-dihydroxyphenyl]-4-isopropenyl-1-(hydroxymethyl)cyclohexane]	16	910	–
C=C(C=O)[C@@H]1CC[C@@H](CO)C[C@H]1c1c(O)cc(C23CC4CC(CC(C4)C2)C3)cc1O [Compound 53.2, (1R,3R,4R)-3-[4-(1-Adamantyl)-2,6-dihydroxyphenyl]-4-[2′-(propenalyl)]-1-(hydroxymethyl)cyclohexane]	20	1400	–
C=C(CO)[C@@H]1CC[C@@H](CO)C[C@H]1c1c(O)cc(C23CC4CC(CC(C4)C2)C3)cc1O [Compound 54.2, (1R,3R,4R)-3-[4-(1-Adamantyl)-2,6-dihydroxyphenyl]-4-[2′-(3′-hydroxyprop-1′-enyl)]-1-(hydroxymethyl)cyclohexane]	185	4140	–
C=C(C)[C@@H]1CC[C@@H](O)C[C@H]1c1c(O)cc(C23CC4CC(CC(C4)C2)C3)cc1O [Compound 55, (1R,3R,4R)-3-[4-(1-Adamantyl)-2,6-dihydroxyphenyl]-4-isopropenyl-1-hydroxycyclohexane]	343	2400	–
CC(C)[C@H]1CC[C@@H](CO)C[C@H]1c1c(O)cc(C23CC4CC(CC(C4)C2)C3)cc1O [Compound 56, (1R,3R,4R)-3-[4-(1-Adamantyl)-2,6-dihydroxyphenyl]-4-isopropyl-1-(hydroxymethyl)cyclohexane]	23	998	–
C=C(C)[C@@H]1CC[C@@H](C(=O)O)C[C@H]1c1c(O)cc(C(C)(C)CCCCCC)cc1O [Compound 58.2, (1R,3R,4R)-3-[4-(1′,1′-Dimethylheptyl)-2,6-dihydroxyphenyl]-4-isopropenyl-1-carboxylylcyclohexane]	> 1000	> 1000	–
C=C(C)[C@@H]1CC[C@@H](C(N)=O)C[C@H]1c1c(O)cc(C(C)(C)CCCCCC)cc1O [Compound 59.1, (1R,3R,4R)-3-[4-(1′,1′-Dimethylheptyl)-2,6-dihydroxyphenyl]-4-isopropenyl-1-carboxamidocyclohexane]	> 1000	> 1000	–
C=C(C)[C@@H]1CCC(=O)C[C@H]1c1c(O)cc(C(C)(C)CCCCCC)cc1O [Compound 61.2, (3R,4R)-3-[4-(1′,1′-Dimethylheptyl)-2,6-dihydroxyphenyl]-4-isopropenylcyclohexan-1-one]	37	> 1000	–
C=C(C)[C@@H]1CC[C@@H](N2CCOCC2)C[C@H]1c1c(O)cc(C(C)(C)CCCCCC)cc1O [Compound 62, (1R,3R,4R)-3-[4-(1′,1′-Dimethylheptyl)-2,6-dihydroxyphenyl]-4-isopropenyl-1-morpholinylcyclohexane]	14	69	–
C=C(C)[C@H]1CCC(=O)C[C@@H]1c1c(O)cc(C(C)(C)CCCCCC)cc1O [Compound 66.2, (3S,4S)-3-[4-(1′,1′-Dimethylheptyl)-2,6-dihydroxyphenyl]-4-isopropenylcyclohexan-1-one]	41	30 to 60	–
C=C(C)C1CCC(O)CC1c1c(O)cc(C(C)(C)CCCCCC)cc1O [Compound 68, (1R,3R,4R)-3-[4-(1′,1′-Dimethylheptyl)-2,6-dihydroxyphenyl]-4-isopropenyl-1-hydroxycyclohexane]	33	> 1000	–
